Measured values as given in US11667649B2, “Heteroaromatic macrocyclic ether chemotherapeutic agents” (Nuvalent, Inc., priority 2020, dated 2023).

Experiments:
[1] = biological target: T1, ROS1-G2032R kinase domain (Homo sapiens, UniProt P08922, G2032R); assay: Biochemical kinase assay, ROS1-G2032R; settings: 2 mM ATP substrate solution, read-out: Ki^app ROS1-G2032R
T1 construct: TRKA-wt (1 nM, BPS Bio, 40280) kinase domains in buffer; purchased SignalChem R14-12BG
In short: (§1)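 Kinase domains (in kinase solution: ROS1-G2032R 0.5 nM, ROS1-wt 0.6 nM, TRKA 1 nM, ALK L1196M/G1202R 3 nM) were mixed with compound and a substrate solution of 2 mM ATP plus 26 μM fluorogenic AQT0101 (ALK, ROS1) or AQT0104 (TRKA) in HEPES pH 7.5/MgCl2. Fluorescence was followed for 120 min at 30° C; Ki^app was obtained by Morrison fit of initial rates.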

TRKA-wt kinase domain = biological target: T2, TRKA-wt kinase domain (Homo sapiens, UniProt P04629); assay: Biochemical kinase assay, TRKA-wt; settings: 2 mM ATP substrate solution, read-out: Ki^app TRKA-wt
T2 construct: TRKA-wt (1 nM, BPS Bio, 40280) kinase domains in buffer; purchased BPS Bio 40280
In short: as §1

ALK-wt kinase domain = biological target: T3, ALK-wt kinase domain (Homo sapiens, UniProt Q9UM73); assay: Biochemical kinase assay, ALK-wt; settings: 2 mM ATP substrate solution, read-out: Ki^app ALK-wt
T3 construct: TRKA-wt (1 nM, BPS Bio, 40280) kinase domains in buffer; purchased Carna 08-518
In short: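 Apparent Ki values come from fitting initial reaction rates against inhibitor concentration to the Morrison equation. Rates were taken from the linear phase of fluorogenic substrate phosphorylation (AQT0101 for ALK and ROS1, AQT0104 for TRKA; 26 μM in substrate solution with 2 mM ATP), monitored at 485 nm over 120 min at 30° C.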

[2] = biological target: T4, ALK L1196M/G1202R kinase domain (Homo sapiens, UniProt Q9UM73, G1202R/L1196M); assay: Biochemical kinase assay, ALK L1196M/G1202R; settings: 2 mM ATP substrate solution, read-out: Ki^app ALK-L1196M-G1202R
T4 construct: TRKA-wt (1 nM, BPS Bio, 40280) kinase domains in buffer; purchased SignalChem A19-12NG
In short: as §1

ROS1-wt kinase domain = biological target: T5, ROS1-wt kinase domain (Homo sapiens, UniProt P08922); assay: Biochemical kinase assay, ROS1-wt; settings: 2 mM ATP substrate solution, read-out: Ki^app ROS1-wt
T5 construct: TRKA-wt (1 nM, BPS Bio, 40280) kinase domains in buffer; purchased Carna 08-163
In short: as §1

Structure (SMILES)	Ki [1] [nM]	Ki (TRKA-wt kinase domain) [nM]	Ki (ALK-wt kinase domain) [nM]	Ki [2] [nM]	Ki (ROS1-wt kinase domain) [nM]
C[C@H]1Oc2cc(cnc2N)-c2c(C(F)F)cnn2Cc2cc(F)cnc2-c2ccc(F)cc21 [Compound 17]	50 to 500	50 to 500	< 50	50 to 500	< 50
CCc1noc2c1-c1cnc(N)c(c1)O[C@H](C)c1cc(F)ccc1-c1nncn1C2 [Compound 120]	50 to 500	50 to 500	< 50	50 to 500	< 50
CCn1ncc2c1-c1cnc(N)c(c1)OC(CO)c1cc(F)ccc1-c1nccn1C2 (centres unmarked) [Compound 166]	50 to 500	> 500	< 50	50 to 500	< 50
C[C@H]1Oc2cc(cnc2N)-c2c(C#N)nn(C)c2Cc2cc(Cl)nn2-c2ccc(F)cc21 [Compound 103]	< 50	50 to 500	< 50	< 50	< 50
C[C@H]1Oc2cc(cnc2N)-c2c(nn(C)c2CC2CC2)Cc2cn(C)nc2-c2ccc(F)cc21 [Compound 179]	< 50	50 to 500	< 50	< 50	< 50
CCn1ncc2c1-c1cnc(N)c(c1)O[C@H](C)c1cc(F)ccc1-c1nc(OC)ccc1C2 [Compound 145]	< 50	50 to 500	< 50	< 50	< 50
CCc1nnn2c1-c1cnc(N)c(c1)O[C@H](C)c1cc(F)ccc1-c1ncc(F)cc1C2 [Compound 16]	< 50	50 to 500	< 50	< 50	< 50
C[C@H]1Oc2cc(cnc2N)-c2c(nn(C)c2C#N)Cc2cn(C)nc2-c2ccc(F)cc21 [Compound 111]	< 50	50 to 500	< 50	< 50	< 50
C[C@H]1Oc2cc(cnc2N)-c2c(C#N)nn(C)c2Cc2scnc2-c2ccc(F)cc21 [Compound 94]	< 50	50 to 500	< 50	< 50	< 50
CCn1ncc2c1-c1cnc(N)c(c1)O[C@H](C)c1cc(F)ccc1-n1ncc(C#N)c1C2 [Compound 47]	< 50	50 to 500	< 50	50 to 500	< 50
C[C@H]1Oc2cc(cnc2N)-c2c(nn(C)c2C2CCC2)Cc2ccnn2-c2ccc(F)cc21 [Compound 174]	< 50	50 to 500	< 50	< 50	< 50
C[C@H]1Oc2cc(cnc2N)-c2c(C3CCC3)noc2Cc2cn(C)nc2-c2ccc(F)cc21 [Compound 26]	< 50	50 to 500	< 50	< 50	< 50
Cc1nn(CC2CC2)c2c1Cc1cn(C)nc1-c1ccc(F)cc1[C@@H](C)Oc1cc-2cnc1N [Compound 53]	< 50	50 to 500	< 50	< 50	< 50
C[C@H]1Oc2cc(cnc2N)-c2c(nnn2CC2CC2)Cc2cc(F)cnc2-c2ccc(F)cc21 [Compound 106]	< 50	50 to 500	< 50	< 50	< 50
CC1Oc2cc(cnc2N)-c2c(C#N)ncn2Cc2cnn(C)c2-c2ccc(F)cc21 (centres unmarked) [Compound 167]	50 to 500	> 500	< 50	50 to 500	< 50
CCn1ncc2c1-c1cnc(N)c(c1)O[C@H](C)c1cc(F)ccc1-n1nc(Br)cc1C2 [Compound 80]	< 50	< 50	< 50	< 50	< 50
CCn1ncc2c1-c1cnc(N)c(c1)OCc1cc(F)ccc1-c1nccn1C2 [Compound 34]	50 to 500	> 500	< 50	< 50	< 50
C[C@H]1Oc2cc(cnc2N)-c2c(C#N)ncn2Cc2cnccc2-c2ccc(F)cc21 [Compound 10]	< 50	> 500	< 50	< 50	< 50
CCc1c(C#N)nn2c1-c1cnc(N)c(c1)O[C@H](C)c1cc(F)ccc1-c1nn(C)cc1C2 [Compound 6]	< 50	50 to 500	< 50	< 50	< 50
CCc1snc2c1-c1cnc(N)c(c1)O[C@H](C)c1cc(F)ccc1-c1nn(C)cc1C2 [Compound 88]	< 50	50 to 500	< 50	< 50	< 50

The remaining lines, values ahead:

Ki [1] [nM]	Ki (TRKA-wt kinase domain) [nM]	Ki (ALK-wt kinase domain) [nM]	Ki [2] [nM]	Ki (ROS1-wt kinase domain) [nM]	Structure (SMILES)
< 50	50 to 500	< 50	< 50	< 50	C[C@H]1Oc2cc(cnc2N)-c2c(nnn2CC2CC2)Cc2cn(C)nc2-c2ccc(F)cc21 [Compound 29]
< 50	> 500	< 50	< 50	< 50	C[C@H]1Oc2cc(cnc2N)-c2c(cnn2C2CCC2)Cc2cnn(C)c2-c2ccc(F)cc21 [Compound 5]
< 50	> 500	< 50	50 to 500	< 50	CC1Oc2cc(cnc2N)-c2c(cnn2CC(F)F)Cn2ccnc2-c2ccc(F)cc21 (centres unmarked) [Compound 40]
< 50	50 to 500	< 50	< 50	< 50	CCc1noc2c1-c1cnc(N)c(c1)O[C@H](C)c1cc(F)cc(F)c1-c1nn(C)cc1C2 [Compound 90]
< 50	50 to 500	< 50	< 50	< 50	C[C@H]1Oc2cc(cnc2N)-c2c(C#N)nn(C)c2Cc2cccnc2-c2ccc(F)cc21 [Compound 100]
< 50	50 to 500	< 50	< 50	< 50	Cc1nc2c(s1)Cc1c(C)nn(CC3CC3)c1-c1cnc(N)c(c1)O[C@H](C)c1cc(F)ccc1-2 [Compound 134]
< 50	50 to 500	< 50	< 50	< 50	C[C@H]1Oc2cc(cnc2N)-c2c(C#N)nn(C)c2Cc2cc(C(F)F)nn2-c2ccc(F)cc21 [Compound 132]
< 50	50 to 500	< 50	< 50	< 50	CCn1nc(C)c2c1-c1cnc(N)c(c1)O[C@H](C)c1cc(F)ccc1-c1nn(C)cc1C2 [Compound 81]
< 50	> 500	< 50	< 50	< 50	C[C@H]1Oc2cc(cnc2N)-c2c(C#N)cnn2Cc2cn(C)nc2-c2ccc(F)cc21 [Compound 9]
< 50	50 to 500	< 50	< 50	< 50	CCc1nn(C)c2c1-c1cnc(N)c(c1)OCc1cc(F)ccc1-n1nc(C)cc1C2 [Compound 55]
< 50	> 500	< 50	< 50	< 50	C[C@H]1Oc2cc(cnc2N)-c2c(C#N)nn(C)c2Cc2cc(F)cnc2-c2ccc(F)cc21 [Compound 105]
< 50	> 500	< 50	< 50	< 50	CC(C)Cn1ncc2c1-c1cnc(N)c(c1)O[C@H](C)c1cc(F)ccc1-c1nn(C)cc1C2 [Compound 154]
< 50	50 to 500	< 50	< 50	< 50	COc1cc2n(n1)-c1ccc(F)cc1[C@@H](C)Oc1cc(cnc1N)-c1c(nnn1CC1CC1)C2 [Compound 144]
< 50	> 500	< 50	< 50	< 50	C[C@H]1Oc2cc(cnc2N)-c2c(C#N)ncn2Cc2scnc2-c2ccc(F)cc21 [Compound 64]
< 50	50 to 500	< 50	< 50	< 50	Cc1nc2c(s1)Cc1c(c(C#N)nn1C)-c1cnc(N)c(c1)O[C@H](C)c1cc(F)ccc1-2 [Compound 82]
< 50	> 500	< 50	50 to 500	< 50	CC1Oc2cc(cnc2N)-c2c(cnn2CCF)Cn2ccnc2-c2ccc(F)cc21 (centres unmarked) [Compound 39]
< 50	< 50	< 50	< 50	< 50	CCn1ncc2c1-c1cnc(N)c(c1)O[C@H](C)c1cc(F)ccc1-c1nn(C)c(OC)c1C2 [Compound 157]
